# Source: the supplement of paper PMC10307832
# Experiments:
# Experiment in all cases: relative viability (nuclei count vs DMSO), 5 days (fraction); higher = more cells survive
# AZD6482 + Phenformin = compound: Cc1cc([C@@H](C)Nc2ccccc2C(=O)O)c2nc(N3CCOCC3)cc(=O)n2c1 [AZD6482] + N=C(N)NC(=N)NCCc1ccccc1 [Phenformin] (partner 250 µM)
# How it was run: (§1)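 Values are medians from duplicate plates. Each reflects relative viability, defined as the nuclei count of treated wells over that of vehicle wells. Lung cancer cell lines in 1536-well plates were pin-tool dosed one day after seeding with one drug alone or with a fixed anchor-drug dose plus five library-drug doses (not always all listed) in √10 steps, then fixed, stained and imaged at 4× after 5 days.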
# [1] = compound: COc1cc2nc(N3CCCN(C)CC3)nc(NC3CCN(Cc4ccccc4)CC3)c2cc1OC + Nc1nc2[nH]cc(CCc3ccc(C(=O)N[C@@H](CCC(=O)O)C(=O)O)cc3)c2c(=O)[nH]1 [Pemetrexed] (partner 0.2 µM)
# How it was run: as §1
# [2] = compound: COc1cc2nc(N3CCCN(C)CC3)nc(NC3CCN(Cc4ccccc4)CC3)c2cc1OC + CC(C)C[C@H](NC(=O)[C@H](Cc1ccccc1)NC(=O)c1cnccn1)B(O)O [Bortezomib] (partner 0.002 µM)
# How it was run: as §1
# [3] = compound: COc1cc2nc(N3CCCN(C)CC3)nc(NC3CCN(Cc4ccccc4)CC3)c2cc1OC
# How it was run: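 Viability was read as treated-well nuclei divided by vehicle-well nuclei, using the median across plates. Lung cancer cell lines in 1536-well plates were kept overnight at 37 °C, pinned with five √10-spaced library-drug doses, and after 5 days were Hoechst-stained, imaged at 4× and counted in MetaXpress. Plates passed only with control CV below 25% and at least one doubling.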
Cell Line,relative viability (AZD6482 + Phenformin; first compound 0.08 µM),relative viability (AZD6482 + Phenformin; first compound 0.253 µM),relative viability (AZD6482 + Phenformin; first compound 0.8 µM),relative viability (AZD6482 + Phenformin; first compound 2.53 µM),relative viability (AZD6482 + Phenformin; first compound 8 µM),relative viability ([1]; first compound 0.2 µM),relative viability ([1]; first compound 0.6325 µM),relative viability ([1]; first compound 2 µM),relative viability ([1]; first compound 6.325 µM),relative viability ([2]; first compound 0.2 µM),relative viability ([2]; first compound 0.6325 µM),relative viability ([2]; first compound 2 µM),relative viability ([2]; first compound 6.325 µM),relative viability ([3]; 0.2 µM),relative viability ([3]; 0.6325 µM),relative viability ([3]; 2 µM),relative viability ([3]; 6.325 µM)
HCC-827,0.45,0.345,0.381,0.288,0.301,0.259,0.277,0.215,0.235,0.99,1.13,0.786,1.06,1.05,1.04,1,1.01
HOP-62,0.679,0.733,0.745,0.577,0.707,0.318,0.257,0.3,0.292,0.623,0.869,0.855,0.469,0.965,0.954,1.1,0.96
IA-LM,–,–,–,–,–,–,–,–,–,0.705,0.764,1.04,0.737,0.941,0.865,1.08,0.862
LC-2-ad,0.615,0.497,0.6,0.442,0.471,0.301,0.27,0.268,0.264,1.03,1.01,1.16,1.04,0.929,1.05,1.09,0.955
LCLC-97TM1,0.443,0.44,0.39,0.363,0.308,0.194,0.156,0.189,0.199,0.439,0.939,0.697,0.517,0.936,0.996,1.09,0.947
LCLC-103H,0.255,0.274,0.342,0.251,0.215,0.495,0.455,0.443,0.47,1.18,1.09,1.31,1.01,0.992,1.03,1.1,0.978
LK-2,0.405,0.382,0.257,0.338,0.184,0.311,0.276,0.296,0.273,–,–,–,–,1,1.09,1.06,0.995
LOU-NH91,0.546,0.718,0.737,0.46,0.556,0.411,0.393,0.401,0.398,0.481,0.552,0.465,0.517,0.96,1.13,0.838,0.983
LU99A,0.903,0.848,0.791,0.691,0.813,0.17,0.185,0.177,0.187,1.26,1.08,1.22,1.01,0.868,0.838,1.03,0.885
LXF-289,0.491,0.471,0.51,0.452,0.307,0.924,0.879,0.999,0.828,0.98,0.973,1.03,0.985,0.99,0.993,1.04,1
NCI-H358,0.305,0.323,0.317,0.163,0.233,0.174,0.168,0.17,0.173,–,–,–,–,0.918,1.03,0.939,0.684
NCI-H522,0.607,0.764,0.7,0.654,0.396,1.05,0.924,1.09,0.78,–,–,–,–,0.987,1.01,0.936,1.02
NCI-H727,0.445,0.683,0.465,0.488,0.315,–,–,–,–,0.756,0.893,0.751,0.618,0.834,0.867,0.826,0.783
NCI-H1299,–,–,–,–,–,–,–,–,–,1.01,1.01,1.02,1.05,0.984,1.03,1.06,0.97
NCI-H1395,0.388,0.385,0.438,0.347,0.302,0.892,0.84,0.824,0.635,–,–,–,–,0.925,1.09,0.976,0.787
NCI-H1623,0.577,0.579,0.531,0.502,0.534,–,–,–,–,–,–,–,–,0.933,0.965,0.979,0.966
NCI-H1648,–,–,–,–,–,–,0.904,–,0.791,–,–,–,–,0.713,0.798,0.757,1.13
NCI-H1703,–,–,–,–,–,–,–,–,–,0.37,0.379,0.316,0.203,1.09,0.789,0.975,0.571
NCI-H1793,0.338,0.311,0.24,0.191,0.15,0.919,1.19,0.945,0.797,–,–,–,–,0.86,0.959,0.863,0.819
NCI-H1944,0.216,0.193,0.19,0.154,0.153,0.598,0.684,0.566,0.587,–,–,–,–,1.01,1,0.745,0.902
NCI-H2170,0.418,0.432,0.421,0.386,0.36,0.256,0.26,0.271,0.274,–,–,–,–,1.02,0.963,1,0.975
NCI-H2342,0.517,0.569,0.682,0.373,0.429,0.81,0.742,0.741,0.761,–,–,–,–,1.02,0.887,0.956,0.995
SK-MES-1,0.612,0.75,0.611,0.357,0.406,1.06,0.887,0.904,0.495,–,–,–,–,1.01,1.01,1.03,0.791
SW 900,0.48,0.29,0.449,–,0.414,0.484,0.504,0.491,0.505,–,–,–,–,0.81,1.03,0.89,0.752
